From patent publication US9598387B2 (Southern Research Institute, priority 2012, dated 2017)

Tests used:
[1] = target: T1, D3R (Homo sapiens (Human), UniProt P35462); assay: D3 Mitogenesis Functional Assay (3H-thymidine uptake, CHOp-D3 cells); format: cell-based
Method in brief: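 CHO cells expressing human D3, serum-starved 24 h, then given compound (agonist mode) or antagonist plus 30 nM quinpirole final for 16 h at 37 °C. A 2 h [3H]thymidine pulse was used for uptake.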

[2] = target: T2, human D3 dopamine receptor (Homo sapiens (Human), UniProt P35462); assay: Radioligand binding (125I-IABN competition), D3
T2 sequence (P35462 whole entry): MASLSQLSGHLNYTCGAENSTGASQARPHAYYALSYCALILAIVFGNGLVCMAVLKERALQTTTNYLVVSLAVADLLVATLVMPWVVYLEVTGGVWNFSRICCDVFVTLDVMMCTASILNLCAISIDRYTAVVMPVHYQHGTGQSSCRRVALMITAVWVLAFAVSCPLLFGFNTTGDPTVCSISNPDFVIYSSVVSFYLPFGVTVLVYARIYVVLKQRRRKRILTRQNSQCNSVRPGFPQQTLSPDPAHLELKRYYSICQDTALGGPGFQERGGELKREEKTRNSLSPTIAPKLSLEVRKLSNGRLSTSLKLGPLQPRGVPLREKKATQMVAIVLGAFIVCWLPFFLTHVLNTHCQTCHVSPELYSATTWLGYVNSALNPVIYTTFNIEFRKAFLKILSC
Procedure: (§1) The affinities of the target compounds were determined using radioligand binding experiments. […] Competition curves were modeled for a single site. Data from competition dose-response curves were analyzed using Tablecurve program (Jandel). IC50 values were converted to equilibrium dissociation constants (Ki values) using the Cheng and Prusoff correction.

[3] = target: human D2 receptors (Homo sapiens (Human), UniProt P14416); assay: D2 Mitogenesis Functional Assay (3H-thymidine uptake, CHOp-D2 cells); format: cell-based
Sequence of human D2 receptors (P14416 whole entry): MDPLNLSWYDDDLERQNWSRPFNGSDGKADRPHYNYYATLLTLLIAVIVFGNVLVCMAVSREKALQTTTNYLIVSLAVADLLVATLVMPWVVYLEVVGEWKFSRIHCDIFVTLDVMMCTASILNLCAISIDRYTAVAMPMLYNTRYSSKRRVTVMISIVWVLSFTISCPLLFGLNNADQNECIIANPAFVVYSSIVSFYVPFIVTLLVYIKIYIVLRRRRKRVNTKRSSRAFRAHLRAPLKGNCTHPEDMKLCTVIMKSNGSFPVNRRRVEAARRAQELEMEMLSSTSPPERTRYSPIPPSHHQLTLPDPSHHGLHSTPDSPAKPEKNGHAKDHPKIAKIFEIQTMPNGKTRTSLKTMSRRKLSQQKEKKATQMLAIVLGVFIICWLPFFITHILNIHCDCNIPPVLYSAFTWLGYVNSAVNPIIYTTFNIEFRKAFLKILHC

[4] = target: D2LR (Homo sapiens (Human), UniProt P14416); assay: β-Arrestin Recruitment Assay, CHO-K1 DRD2L; format: cell-based; conditions: antagonist vs EC80 6 nM Pergolide, CHO-K1 DRD2L cells; read-out: D2 IC50
Sequence of D2LR (P14416 whole entry): as above
Procedure: (§2) Antagonist potency of the compounds against agonist induced recruitment of β-arrestin by D3R and D2LR was measured using DiscoverRx PathHunter eXpress kits. […] After incubation at 37° C. for 90 min, the DiscoveRx detection reagent was added, the plates were incubated at room temperature for 60 min and the luminescence was measured on a Synergy 4 plate reader (BioTek). The data were plotted and the agonist EC80 values were calculated using GraphPad Prism software. For antagonist activity, the cells were plated as described above and treated with multiple concentrations (starting from 500 nM, half log dilution, 10 dose points) of the test compounds in Plating Reagent with 0.1% DMSO.

[5] = target: T2, human D3 dopamine receptor; assay: Whole Cell Adenylyl Cyclase Assay, D3; format: cell-based; conditions: inhibition of forskolin (100 μM) stimulated cAMP, normalized to quinpirole; compound conc ≥10× Ki (per compound); mean ± S.E.M.
[6] = target: T1, D3R; assay: β-Arrestin Recruitment Assay, U2OS DRD3; format: cell-based
Procedure: as §2

[7] = target: human D2 dopamine receptors (Homo sapiens (Human), UniProt P14416); assay: Whole Cell Adenylyl Cyclase Assay, D2; format: cell-based; conditions: inhibition of forskolin (100 μM) stimulated cAMP, normalized to quinpirole; compound conc ≥10× Ki (per compound); mean ± S.E.M.
Sequence of human D2 dopamine receptors (P14416 whole entry): as above
Procedure: The intrinsic activity of the compounds was evaluated by determining their ability to inhibit forskolin-dependent (100 μM) stimulation of adenylyl cyclase activity using a whole cell assay. A whole cell-cyclic AMP accumulation assay was performed with stably transfected HEK cells expressing human D2 or D3 dopamine receptors. This assay is an adaptation of an earlier published method (Su et al., Cyclic Nucleotide Res. 1976, 2, 257-285). Details regarding this method have been published (Chu, W. et al. Bioorg. Med. Chem. 2005, 13, 77-87; Taylor, M. et al. Synapse 2010, 64, 251-266). Confluent (60-80%) HEK cells transfected with recombinant D2-like dopamine receptors were grown in DMEM/10% fetal calf serum containing geneticin in […] flasks. The endogenous ATP pool is radioactively labeled by preincubating the cells in serum-free DMEM/25 mM Hepes medium containing 2 μCi/mL of [2,8-^3H]-adenine (20-Ci/mmol) in a 5% CO2 incubator at 37° C. for 75 min. The radioactive medium was removed by aspiration. Serum-free DMEM (5.6 mL) containing 25 mM HEPES, pH 7.4, and 0.1 mM of the phosphodiesterase inhibitor isobutylmethylxanthine was added to the flask. A […] aliquot of cells was removed and added to 50 μL of forskolin (100 μM) and 50 μL of test drug or quinpirole in DMEM-HEPES. The cells were incubated for 20 min at 37° C. (vortexing every 5 min). The reaction was terminated by the addition of 0.5 mL of 10% trichloroacetic acid (w/v) containing 1.0 mM unlabeled cyclic AMP as a recovery standard. Both the [^3H]-cyclic AMP and the [^3H]-ATP fractions were collected following separation using columns of Dowex AG-50W-X4 and alumina. The final yield of [^3H]-cyclic AMP is corrected for column recovery of unlabeled cyclic AMP determined spectrophotometrically (OD259). The results are reported as percent conversion of [^3H]-ATP into [^3H]-cyclic AMP. The values for the percent inhibition are reported as the actual percent of inhibition of the ^3H-cAMP accumulation relative to the assay performed in the absence of a test compound, minus basal activity. […] The percent maximum response is the value for the inhibition normalized to the value for the full agonist quinpirole.

[8] = target: human D2-long dopamine receptor (Homo sapiens (Human), UniProt P14416); assay: Radioligand binding (125I-IABN competition), D2; conditions: HEK cell membranes expressing human D2-long
Sequence of human D2-long dopamine receptor (P14416 whole entry): as above
Procedure: as §1

T1 sequence (P35462 whole entry): as the sequence (P35462 whole entry) above

EC50 ([1]; CHOp-D3 cells, stimulation of mitogenesis, read-out: D3 Agonist EC50): > 10000 nM
Emax at 10 µM ([1]; at 10 μM, % maximum stimulation vs quinpirole (100%), read-out: D3 Agonist Emax): 3%
D3 Antagonist Imax ([1]; inhibition of quinpirole stimulation of mitogenesis): 88.2%
IC50 ([1]; read-out: D3 Antagonist IC50): 125 ± 37 nM
Ki ([2]; 125I-IABN competition, HEK cell membranes expressing human D3): 2.7 ± 0.7 nM
D2/D3 (D3 selectivity ratio, D2 Ki/D3 Ki) ([2]; calculated D2 Ki/D3 Ki): 174
EC50 ([3]; CHOp-D2 cells, stimulation of mitogenesis, read-out: D2 Agonist EC50): > 10000 nM
Emax at 10 µM ([3]; at 10 μM, % maximum stimulation vs quinpirole (100%), read-out: D2 Agonist Emax): < 1%
D2 Antagonist Imax ([3]; at 10 μM, inhibition of quinpirole stimulation of mitogenesis): 100% at 10 μM
IC50 ([3]; read-out: D2 Antagonist IC50): 440 ± 160 nM
IC50 [4]: > 500 nM
D3 Cyclase % Inhibition Normalized [5]: 60.7 ± 10.7%
IC50 ([6]; antagonist vs EC80 8 nM PD128907, U2OS DRD3 cells, read-out: D3 IC50): 6.15 ± 0.33 nM
D2 IC50/D3 IC50 ([6]; ratio of β-arrestin IC50 values): >81
D2 Cyclase % Inhibition Normalized [7]: −4.8 ± 4.1%
Ki [8]: 470 ± 34 nM
Structure (SMILES): CC(C)(C)c1nc(N2CCN(CCCCNC(=O)N3CCN(c4ccccc4)CC3)CC2)cc(C(F)(F)F)n1 [Compound 8, N-(4-(4-(2-(tert-Butyl)-6-(trifluoromethyl)pyrimidin-4-yl)piperazin-1-yl)butyl)-4-phenylpiperazine-1-carboxamide]
